The nature of data set [1]: UV-vis and fluorescence spectroscopy. It is filed as physicochemical. Conditions: 10 mM HEPES, pH 7.3. On the procedure: UV-vis and fluorescence spectroscopy. […] Spectroscopy was performed using 1-cm path length, 3.5-mL quartz cuvettes or 1-cm path length, 1.0-ml quartz microcuvettes (Starna Cells). All measurements were taken at ambient temperature (22±2° C.). Absorption spectra were recorded on a Cary Model 100 spectrometer (Agilent). Fluorescence spectra were recorded on a Cary Eclipse fluorometer (Varian). Maximum absorption wavelength (λabs), extinction coefficient (εw), and maximum emission wavelength (λem) were taken in 10 mM HEPES, pH 7.3 buffer unless otherwise noted; reported values for ew are averages (n=3). Normalized spectra are shown for clarity.

A short description of data set [2]: Determination KL-Z and εmax. It is filed as physicochemical. On the procedure:
Determination KL-Z and εmax. The lactone-zwitterion equilibrium constant (KL-Z) was calculated as described previously^18,41 using equation 1: KL-Z=(εdw/εmax)/(1−εdw/εmax) (1) • where εdw is the extinction coefficient of the dyes in a 1:1 (v/v) dioxane:water solvent mixture containing 0.01% (v/v) triethylamine; the dioxane-water mixture was chosen to give a large range of KL-Z values and the triethylamine additive ensures the rhodamines are in the net neutral form. The emax (maximal extinction coefficient) values were measured in 0.1% (v/v) trifluoroacetic acid (TFA) in 2,2,2-trifluoroethanol (TFE) for rhodaminc 10, and 0.1% (v/v) TFA in ethanol for the Si-rhodamine 8.
Instead, a solution of strong acid in alcoholic solvents was used (e.g., TFA in […]) to shift the equilibrium to the open form by protonation of the o-carboxyl group. This decades-old procedure^36 allows estimation of the maximal extinction coefficient (εmax) and determination of KL-Z=(ε/εmax)/(1−ε/εmax).
The KL-Z was determined using ε values measured in 1:1 dioxane:water to ensure a broad distribution of values.^18 An inverse relationship was observed between KL-Z and fluorogenicity, showing that KL-Z is sufficient to accurately predict the increase in fluorescence of rhodamine dyes. This increase in fluorescence is primarily driven by the increase in absorption; chromogenicity is correlated both with KL-Z and fluorogenicity (FIGS. 11E-11J). Importantly, this trend holds across different rhodamine scaffolds including Si-rhodamines (1-3), carborhodamines (4-5), and classic, oxygen-containing rhodamines (6-7, FIG. 1C). Based on this inverse relationship a simple rubric was determined: a dye with KL-Z<10^−2 should yield a HaloTag ligand with at least 10-fold fluorogenicity (FIG. 1E).

Data set [3] can be described thus: Quantum yield determination. It is filed as physicochemical. Conditions: absolute, integrating sphere. On the procedure:
Quantum yield determination. All reported absolute fluorescence quantum yield values (Φ) were measured in the laboratory under identical conditions using a Quantaurus-QY spectrometer (model C11374, Hamamatsu). This instrument uses an integrating sphere to determine photons absorbed and emitted by a sample. Measurements were carried out using dilute samples (A<0.1) and self-absorption corrections were performed using the instrument software^57 when appropriate. Reported values are averages (n=3).

The subject of data set [4] is histone H2B-HaloTag. The data set is described as follows: Comparison of HaloTag ligands 7HTL and 10HTL in live cells (no-wash). The note with it: 500 nM, 30 min. The format is cell-based. The source says: Comparison of HaloTag ligands 7HTL and 10HTL in live cells.
Data set [5] has as its target HaloTag protein (Rhodococcus rhodochrous, UniProt P0A3G2, A155T/A167V/A172T/A224E/C128F/C176G/D78G/E160K/E257K/H272N/K175M/K195N/L47V/L88M/N227D/P291S/S2A/S58T/T264A/Y273L/Y87F). The data set is described as follows: Increase in absorption of HaloTag ligands following attachment to HaloTag protein. The format is biochemical. The note with it: 5 μM ligand, 1.5 equiv HaloTag protein. On the procedure: Measurement of increase in absorption of HaloTag ligands 1HTL-10HTL following attachment to HaloTag protein. HaloTag protein was prepared as a 100 μM solution in 75 mM NaCl, 50 mM TRIS·HCl, pH 7.4. Absorption measurements were performed in 1.0-mL quartz cuvettes. HaloTag ligands (5 μM) were dissolved in 10 mM HEPES, pH 7.3 containing 0.1 mg/mL CHAPS. An aliquot of HaloTag protein (75 μL, 7.5 μM, 1.5 equiv) or an equivalent volume of buffer (75 mM NaCl, 50 mM TRIS·HCl, pH 7.4) was added and the resulting mixture was incubated until a consistent absorption signal was observed (˜60 min). Absorption scans are averages (n=2).

The test system of data set [6] is microtubules. The note with it: live-cell no-wash imaging.
Method: Imaging was performed on a LSM880 confocal microscope (Zeiss) using the following configuration: excitation: 514 nm/emission: 526-615 nm (JF526); excitation: 594 nm/emission: 599-734 nm (JF585); excitation: 633 nm/emission: 638-759 nm (JF646 or SiR).
In data set [7] the test system is histone H2B-SNAP-tag. The data set is described as follows: Comparison of SNAP ligands 7STL and 10STL in live cells (no-wash). Conditions: 1 μM, 1 h. It is filed as cell-based. From the text:
Comparison of SNAP ligands 7STL and 10STL in live cells.

Chain of HaloTag protein (P0A3G2 other isoform, or with tags, fused parts or gaps with the stated changes): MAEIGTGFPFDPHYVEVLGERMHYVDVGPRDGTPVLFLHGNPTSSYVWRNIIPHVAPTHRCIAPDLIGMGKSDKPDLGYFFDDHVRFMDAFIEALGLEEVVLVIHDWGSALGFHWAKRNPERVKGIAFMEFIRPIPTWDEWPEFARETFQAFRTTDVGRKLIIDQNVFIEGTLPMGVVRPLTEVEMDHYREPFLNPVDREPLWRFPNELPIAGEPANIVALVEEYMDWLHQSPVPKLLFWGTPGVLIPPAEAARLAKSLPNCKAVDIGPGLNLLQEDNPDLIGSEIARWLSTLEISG

As to `O=C([O-])c1ccccc1-c1c2cc(F)c(=[N+]3CC(F)(F)C3)cc-2oc2cc(N3CC(F)(F)C3)c(F)cc12` [dye 10, Janelia Fluor 526], in data set [1], the εw was 19,000 M^−1cm^−1, the λabs stood at 526 nm and the λem is 550 nm. Also, the εmax in data set [2] (0.1% TFA in TFE (rhodamine 10), 0.1% TFA in ethanol (Si-rhodamine 8)) was 118,000 M^−1cm^−1. Further, the “KL-Z (lactone-zwitterion equilibrium constant)” value in data set [2] (1:1 (v/v) dioxane:water, 0.01% triethylamine) came out at 0.0050. For the same compound, the “ϕ (fluorescence quantum yield)” value in data set [3] is 0.87. Moreover, the “signal-to-background compared to JF525” value in data set [4] is listed as “superior signal-to-background”.

`O=C(NCCOCCOCCCCCCCl)c1ccc(C(=O)[O-])c(-c2c3cc(F)c(=[N+]4CC(F)(F)C4)cc-3oc3cc(N4CC(F)(F)C4)c(F)cc23)c1` [10HTL, JF526-HaloTag ligand]: the “increase of absorbance upon conjugation to purified HaloTag protein” value in data set [5] is “substantial increase”.

Turning to JF526-Taxol [10TXL], the “performance relative to SiR-tubulin (1TXL)” value in data set [6] is listed as “comparable performance”.

Turning to `Nc1nc(OCc2ccc(CNC(=O)c3ccc(C(=O)[O-])c(-c4c5cc(F)c(=[N+]6CC(F)(F)C6)cc-5oc5cc(N6CC(F)(F)C6)c(F)cc45)c3)cc2)c2nc[nH]c2n1` [10STL, JF526-SNAP-tag ligand], the “signal-to-background compared to JF525” value in data set [7] is given as “superior signal-to-background”.

The values above are taken from patent US12440581B2, “Fluorophores for super-resolution imaging” (HOWARD HUGHES MEDICAL INSTITUTE, priority 2019, dated 2025).
